Values quoted from earlier work, collected in US20100055036A1, “PET VISUALIZATION OF AMYLOID-ASSOCIATED NEUROINFLAMMATION IN THE BRAIN” (National Institute of Radiolotgical Sciences, priority 2007, published 2010).

Tested on: amyloid plaque lesions in mouse brain
Conditions: mice developing abundant plaque lesions vs WT

SMILES: [11CH3]Nc1ccc(-c2nc3ccc(O)cc3s2)cc1 [[^11C]6-OH-BTA-1, N-[^11C]methyl-2-(4′-methylaminophenyl)-6-hydroxybenzothiazole]
- PET data in brains of plaque-bearing mice compared with wild-type mouse brains: virtually indistinguishable
